Values joined by “and” are separate entries in the source; they are usually repeats but may differ in a detail not shown here. Equal entries are not always repeated. Toxic doses and inconclusive results are not listed.
Test system: CD2F1 mice, L1210 leukemia ip, survival T/C
Experiment: NCI In Vivo Anticancer Drug Screen. Data for tumor model L1210 Leukemia (intraperitoneal) in CD2F1 (CDF1) mice
Details: higher = longer survival
Outline: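 Ratio T/C, where T is the treated-group value and C the vehicle-dosed control value, from mice implanted with a transplantable tumor.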

[1] = endpoint: mean survival time, dose: 100.0 mg/kg/injection, schedule: Q01DX001 (ip), vehicle: saline
[2] = endpoint: mean survival time, dose: 100.0 mg/kg/injection, schedule: Q04DX003 (ip), vehicle: saline
[3] = endpoint: mean survival time, dose: 200.0 mg/kg/injection, schedule: Q01DX001 (ip), vehicle: saline
[4] = endpoint: mean survival time, dose: 200.0 mg/kg/injection, schedule: Q04DX003 (ip), vehicle: saline
[5] = endpoint: mean survival time, dose: 400.0 mg/kg/injection, schedule: Q01DX001 (ip), vehicle: saline
[6] = endpoint: mean survival time, dose: 400.0 mg/kg/injection, schedule: Q04DX003 (ip), vehicle: saline
[7] = endpoint: mean survival time, dose: 100.0 mg/kg/injection, schedule: Q01DX001 (ip), vehicle: saline with Tween-80
[8] = endpoint: mean survival time, dose: 200.0 mg/kg/injection, schedule: Q01DX001 (ip), vehicle: saline with Tween-80
[9] = endpoint: mean survival time, dose: 75.0 mg/kg/injection, schedule: Q01DX001 (ip), vehicle: saline
[10] = endpoint: mean survival time, dose: 50.0 mg/kg/injection, schedule: Q01DX009 (ip), vehicle: saline with Tween-80
[11] = endpoint: mean survival time, dose: 100.0 mg/kg/injection, schedule: Q01DX009 (ip), vehicle: saline with Tween-80
[12] = endpoint: mean survival time, dose: 200.0 mg/kg/injection, schedule: Q01DX009 (ip), vehicle: saline with Tween-80
[13] = endpoint: mean survival time, dose: 400.0 mg/kg/injection, schedule: Q01DX001 (ip), vehicle: saline with Tween-80

COC1(OC)C(Cl)=C(Cl)C2C1C1(Cl)C(Cl)=C(Cl)C2(Cl)C1(OC)OC (stereo not given)
T/C [1]: 106 % of control
T/C [2]: 105 % of control
T/C [3]: 106 % of control
T/C [4]: 103 % of control
T/C [5]: 102 % of control
T/C [6]: 100 % of control

Cc1ccc(P(=O)(O)O)c([N+](=O)[O-])c1
T/C (endpoint: mean survival time, dose: 50.0 mg/kg/injection, schedule: Q04DX003 (ip), vehicle: saline): 105 % of control
T/C [2]: 95 % of control
T/C [4]: 105 % of control

CCOC(=O)CC1=Nc2c(Cl)ncnc2NN1
T/C (endpoint: mean survival time, dose: 100.0 mg/kg/injection, schedule: Q01DX001 (ip), vehicle: carboxymethylcellulose (CMC)): 95 % of control
T/C (endpoint: mean survival time, dose: 200.0 mg/kg/injection, schedule: Q01DX001 (ip), vehicle: carboxymethylcellulose (CMC)): 91 % of control

CC1=CC(c2ccccc2)(c2ccccc2)c2ccccc21
T/C [7]: 104 % of control
T/C [8]: 91 % of control

Cn1c(CC(O)(C(F)(F)F)C(F)(F)F)cc2ccccc21
T/C (endpoint: mean survival time, dose: 100.0 mg/kg/injection, schedule: Q01DX001 (ip), vehicle: other): 106 % of control
T/C (endpoint: mean survival time, dose: 200.0 mg/kg/injection, schedule: Q01DX001 (ip), vehicle: other): 92 % of control
T/C (endpoint: mean survival time, dose: 400.0 mg/kg/injection, schedule: Q01DX001 (ip), vehicle: other): 95 % of control

COc1cc(C2CNCc3cc(OC)c(OC)cc32)ccc1O (stereo not given)
T/C [9]: 96 % of control
T/C (endpoint: mean survival time, dose: 150.0 mg/kg/injection, schedule: Q01DX001 (ip), vehicle: saline): 104 % of control
T/C (endpoint: mean survival time, dose: 300.0 mg/kg/injection, schedule: Q01DX001 (ip), vehicle: saline): 100 % of control

CC(=O)NC(C)C1(O)CCCCC1 (stereo not given)
T/C [2]: 100 % of control
T/C [4]: 97 % of control
T/C [6]: 94 % of control

COc1ccc2c(c1)OC(C)(C)C(c1ccccc1)=C2c1ccc(OCCN2CCCC2)cc1
T/C [9]: 98 % of control

O=P1(NCCCl)OCCCN1CCCl (stereo not given)
T/C (endpoint: mean survival time, dose: 25.0 mg/kg/injection, schedule: Q01DX001 (ip), vehicle: DMSO): 111 % of control
T/C (endpoint: mean survival time, dose: 25.0 mg/kg/injection, schedule: Q01DX001 (ip), vehicle: saline): 102 % of control
T/C (endpoint: mean survival time, dose: 50.0 mg/kg/injection, schedule: Q01DX001 (ip), vehicle: saline): 122 % of control
T/C (endpoint: mean survival time, dose: 100.0 mg/kg/injection, schedule: Q01DX001 (ip), vehicle: DMSO): 153 % of control
T/C (endpoint: mean survival time, dose: 200.0 mg/kg/injection, schedule: Q01DX001 (ip), vehicle: DMSO): 397 % of control
T/C [3]: 170 % of control
T/C (endpoint: mean survival time, dose: 400.0 mg/kg/injection, schedule: Q01DX001 (ip), vehicle: DMSO): 430 % of control
T/C (endpoint: mean survival time, dose: 400.0 mg/kg/injection, schedule: Q01DX001 (ip), vehicle: clinical formulation): 416 % of control
T/C [5]: 326 % of control and 685 % of control
T/C (endpoint: mean survival time, dose: 600.0 mg/kg/injection, schedule: Q01DX001 (ip), vehicle: clinical formulation): 437 % of control
T/C (endpoint: mean survival time, dose: 600.0 mg/kg/injection, schedule: Q01DX001 (ip), vehicle: saline): 451 % of control
T/C (endpoint: median survival time, dose: 108.0 mg/kg/injection, schedule: Q01DX001 (ip), vehicle: water): 155 % of control and 157 % of control
T/C (endpoint: median survival time, dose: 180.0 mg/kg/injection, schedule: Q01DX001 (ip), vehicle: water): 166 % of control and 173 % of control
T/C (endpoint: median survival time, dose: 300.0 mg/kg/injection, schedule: Q01DX001 (ip), vehicle: saline): 315 % of control
T/C (endpoint: median survival time, dose: 300.0 mg/kg/injection, schedule: Q01DX001 (ip), vehicle: water): 200 % of control and 215 % of control
T/C (endpoint: median survival time, dose: 300.0 mg/kg/injection, schedule: Q01DX001 (iv), vehicle: saline): 223 % of control
T/C (endpoint: median survival time, dose: 450.0 mg/kg/injection, schedule: Q01DX001 (ip), vehicle: saline): 616 % of control
T/C (endpoint: median survival time, dose: 450.0 mg/kg/injection, schedule: Q01DX001 (iv), vehicle: saline): 616 % of control
T/C (endpoint: median survival time, dose: 500.0 mg/kg/injection, schedule: Q01DX001 (ip), vehicle: water): 65 % of control

CCCC(Br)C(=O)OCC (stereo not given)
T/C [10]: 96 % of control
T/C [11]: 93 % of control
T/C [12]: 93 % of control

CCCCCC(O)C1C(=O)OC(C)C(O)/C=C/C=C/C=C/C=C\C=C(\C)C(O)CC(O)CC(O)CC(O)CC(O)CC(O)CC1O (stereo not given)
T/C (endpoint: median survival time, dose: 3.12 mg/kg/injection, schedule: Q01DX009 (ip), vehicle: distilled water + alcohol): 104 % of control
T/C (endpoint: median survival time, dose: 6.25 mg/kg/injection, schedule: Q01DX009 (ip), vehicle: distilled water + alcohol): 104 % of control
T/C (endpoint: median survival time, dose: 12.5 mg/kg/injection, schedule: Q01DX009 (ip), vehicle: distilled water + alcohol): 104 % of control
T/C (endpoint: median survival time, dose: 25.0 mg/kg/injection, schedule: Q01DX009 (ip), vehicle: distilled water + alcohol): 100 % of control

O=C(O)CN(CC(=O)O)Cc1ccccc1
T/C [1]: 103 % of control
T/C [3]: 103 % of control
T/C [5]: 103 % of control

NCCSC(C[N+](=O)[O-])c1ccccc1Cl (stereo not given)
T/C (endpoint: median survival time, dose: 6.25 mg/kg/injection, schedule: Q01DX009 (ip), vehicle: saline): 102 % of control
T/C (endpoint: median survival time, dose: 12.5 mg/kg/injection, schedule: Q01DX009 (ip), vehicle: saline): 107 % of control
T/C (endpoint: median survival time, dose: 25.0 mg/kg/injection, schedule: Q01DX009 (ip), vehicle: saline): 112 % of control
T/C (endpoint: median survival time, dose: 50.0 mg/kg/injection, schedule: Q01DX009 (ip), vehicle: saline): 123 % of control
T/C (endpoint: median survival time, dose: 100.0 mg/kg/injection, schedule: Q01DX009 (ip), vehicle: saline): 123 % of control

COC(=O)c1cc(C)[nH]c(=O)c1C#N
T/C [11]: 100 % of control
T/C (endpoint: mean survival time, dose: 100.0 mg/kg/injection, schedule: Q04DX003 (ip), vehicle: saline with Tween-80): 95 % of control
T/C [12]: 100 % of control
T/C (endpoint: mean survival time, dose: 200.0 mg/kg/injection, schedule: Q04DX003 (ip), vehicle: saline with Tween-80): 98 % of control
T/C (endpoint: mean survival time, dose: 400.0 mg/kg/injection, schedule: Q01DX009 (ip), vehicle: saline with Tween-80): 94 % of control
T/C (endpoint: mean survival time, dose: 400.0 mg/kg/injection, schedule: Q04DX003 (ip), vehicle: saline with Tween-80): 96 % of control

COc1cc2cccc(N)c2cc1OC
T/C (endpoint: mean survival time, dose: 12.5 mg/kg/injection, schedule: Q01DX009 (ip), vehicle: water): 95 % of control
T/C (endpoint: mean survival time, dose: 25.0 mg/kg/injection, schedule: Q01DX009 (ip), vehicle: water): 95 % of control
T/C (endpoint: mean survival time, dose: 50.0 mg/kg/injection, schedule: Q01DX009 (ip), vehicle: water): 95 % of control

CCCCCCC#CC(O)CC (stereo not given)
T/C [10]: 97 % of control
T/C [11]: 105 % of control

O=[N+]([O-])c1ccccc1NS(=O)(=O)c1ccccc1
T/C [7]: 100 % of control
T/C [8]: 102 % of control
T/C [13]: 107 % of control

CNC(=O)/C(=C\c1ccccc1Cl)NC(C)=O
T/C [7]: 97 % of control
T/C [8]: 93 % of control
T/C [13]: 93 % of control

COc1ccc(OC)c(C(=O)C=C(C(F)(F)F)C(F)(F)F)c1
T/C (endpoint: mean survival time, dose: 100.0 mg/kg/injection, schedule: Q01DX009 (ip), vehicle: other): 113 % of control

From PubChem BioAssay AID256 (DTP/NCI, 2004)
